Converted amounts (≈) assume the structure as drawn.
Tests used:
ACAT = ACAT inhibitory activity (cholesteryl oleate production by small intestine mucosal microsomes); type: biochemical, Japanese white rabbits; conditions: rabbit small intestine mucosal microsomes, [1-14C] oleoyl CoA, 37° C. 7 minutes, vs control; test concentration not given
serum total cholesterol = test: Serum total cholesterol reducing effect in rats on high cholesterol feed; type: in vivo; conditions: male Wister rats, vs control
Procedure: Mile Wister rats weighing 180-200 g were bred under free access to a high cholesterol feed [added with cholesterol (1%), cholic acid (0.5%) and coconut oil (10%), Clea Japan, Inc.] for 3 days, during which period a test compound (3 mg/kg and 10 mg/kg) suspended in 5% gum arabic solution was forcibly administered once a day orally for 3 days. Only 5% gum arabic solution was administered to control animals. After final administration, the test animals were fasted and blood was taken 5 hours later. The serum total cholesterol level was determined using a commercially available assay lit (cholesterol-CII-Test Wako, Wako Pure Chemical Industries, Ltd.).

plasma lipoperoxidation [1] = test: In vitro plasma lipoperoxidation inhibitory activity (malondialdehyde production); type: biochemical, Wister rats; conditions: rat heparinized plasma, test compound final concentration 10^-5M, copper sulfate, malondialdehyde production vs control
Procedure: Under ether anesthesia, blood was taken from male Wister rats weighing 160-190 g that had been fasted for 16 hours, and heparinized plasma was separated by conventional method. DMSO (10 μl) or a test compound (final concentration 10^−5M) dissolved in DMSO (test compound solution 10 μl) was added to plasma (1.0 ml), and the mixture was incubated at 37° C. for 5 minutes.

[2] = Solubility in buffer pH 6.8; conditions: for solubility at 1 h: buffer pH 6.8, 25 °C, pH 6.8, aqueous buffer, thermodynamic from solid; for Solubility: buffer pH 6.8, shaken 1 hr at 25° C., HPLC
Procedure: A pulverized test compound (10 mg) was added to buffer (1 ml, pH 6.8), and the mixture was shaken for 1 br at 25° C.

plasma lipoperoxidation [3] = test: Ex vivo plasma lipoperoxidation inhibitory activity after oral administration; type: in vivo; conditions: male Wister rats, plasma taken 1 hour after administration
Procedure: Under ether anesthesia, blood was taken from male Wister rats weighing 160-190 g that had been fasted for 16 hours, and heparinized plasma was separated by conventional method.
Only 5% gum arabic solution was administered to control animals. At 1 hour after administration, blood was taken under ether anesthesia and heparinized plasma was separated by conventional method. The plasma (1.0 ml) was processed in the same manner as in Experimental Example 3 and the amount of produced malondialdehyde was determined.

[4] = Oral administration, plasma concentration in SD rats; conditions: 30 mg/kg orally, fasted male SD rats, sampled 0.5-6 hours
Procedure: (§1) At 0.5, 1, 2, 4 and 6 hours after administration, blood was taken and heparinized plasma was separated by conventional method.

[5] = Oral administration, plasma concentration in Wister rats; conditions: 30 mg/kg orally, fasted male Wister rats, sampled 0.5-6 hours
Procedure: as §1

[6] = 3 mg/kg/day orally once a day for 3 days
[7] = 10 mg/kg/day orally once a day for 3 days

| Structure (SMILES) | ACAT inhibition (%) (ACAT) | Reduction (%) of serum total cholesterol (serum total cholesterol; [6]) | Reduction (%) of serum total cholesterol (serum total cholesterol; [7]) | Inhibition (%) of plasma lipoperoxidation (plasma lipoperoxidation [1]) | also measured |
| --- | --- | --- | --- | --- | --- |
| CCCCSCCCCCCN1CCc2c(C)c(CC(=O)O)c(C)c(NC(=O)C(C)(C)C)c21 [Example 121] | 92.5% | 87.8% | 48.1% | 41.6% | – |
| Cc1cc(C)c(NC(=O)N(Cc2ccc3c(c2)Cc2ccccc2-3)C2CCCCCC2)c(C)c1 [YM-750, 1-cycloheptyl-1-[(2-fluorenyl)methyl]-3-(2,4,6-trimethyl-phenyl) urea, reference compound] | 92.0% | 37.7% | 46.4% | – | solubility at 1 h [2]: < 10 µg/mL |
| CCCCCCCCN1CCc2c(C)c(CC(=O)O)c(C)c(NC(=O)C(C)(C)C)c21 [Example 4, N-(1-octyl-5-carboxymethyl-4,6-dimethylindolin-7-yl)-2,2-dimethylpropanamide] | – | 58.8% | 57.5% | 51.2% | Inhibition (%) of plasma lipoperoxidation (plasma lipoperoxidation [3]; 10 mg/kg orally): 39.0%; solubility at 1 h [2]: 6900 µg/mL (≈ 16.6 mM); Highest concentration in plasma [4]: 13.6 µg/mL; Highest concentration in plasma [5]: 1.4 µg/mL |
| CCCCCCCCN1CCCc2c(C)c(CC(=O)O)c(C)c(NC(=O)C(C)(C)C)c21 [Example 125, N-(1-octyl-6-carboxymethyl-5,7-dimethyl-1,2,3,4-tetrahydroquinolin-8-yl)-2,2-dimethylpropanamide] | 93.0% | 30.2% | 47.9% | 48.0% | – |
| CCCCCCCCCN1CCc2c(C)c(CC(=O)O)c(C)c(NC(=O)C(C)(C)C)c21 [Example 36] | – | – | – | – | Solubility [2]: 4200 µg/mL (≈ 9.75 mM); Highest concentration in plasma [4]: 12.2 µg/mL; Highest concentration in plasma [5]: 2.2 µg/mL |
| CCCCCCCCN1CCc2c(C)c(CO)c(C)c(NC(=O)C(C)(C)C)c21 [Example 1, N-(1-octyl-5-hydroxymethyl-4,6-dimethylindolin-7-yl)-2,2-dimethylpropanamide] | 99.2% | 52.8% | 57.1% | 51.7% | – |
| CCCCSCCCN1CCc2c(C)c(CC(=O)O)c(C)c(NC(=O)C(C)(C)C)c21 [Example 122] | 92.0% | 88.2% | 50.0% | – | – |
| CCCCCCCCN1CCc2cc(C(=O)O)c(C)c(NC(=O)C(C)(C)C)c21 [Example 155, N-(1-octyl-5carboxy-6-methylindolin-7-yl)-2,2-dimethylpropanamide] | – | 55.2% | 58.5% | 47.7% | – |
| CCCCCCN1CCc2c(C)c(CC(=O)O)c(C)c(NC(=O)C(C)(C)C)c21 [Example 18] | – | – | – | – | Solubility [2]: 7300 µg/mL (≈ 18.8 mM) |
| CCCCCCCCN1CCc2cc(CC(=O)O)c(C)c(NC(=O)C(C)(C)C)c21 [Example 71] | – | 26.5% | 52.3% | 48.1% | Solubility [2]: 100 µg/mL (≈ 0.248 mM) |
| CCCCCCCCN1CCc2cc(CC(=O)O)c(C)c(NC(=O)C(C)(C)C)c21 [Example 116] | 92.0% | 26.5% | 50.9% | 45.5% | – |
| CCCCCCCCN1CC(CCC(=O)O)c2c(C)cc(C)c(NC(=O)C(C)(C)C)c21 (stereo not shown) [Example 11, N-[(1-octyl-3-(2-carboxyethyl)-4,6-dimethylindolin-7-yl)]-2,2-dimethylpropanamide] | – | – | – | 44.5% | – |
| CC(C)(Sc1cc(C(C)(C)C)c(O)c(C(C)(C)C)c1)Sc1cc(C(C)(C)C)c(O)c(C(C)(C)C)c1 [Probucol, 4,4-isopropylidenedithiobis(2,6-di-t-butylphenol), reference compound] | – | – | – | – | Inhibition (%) of plasma lipoperoxidation (plasma lipoperoxidation [3]; 100 mg/kg orally): 15.4% |
| CCCCCCCCN1CCc2cc(CO)c(C)c(NC(=O)C(C)(C)C)c21 [Example 76] | 94.7% | – | – | 51.7% | – |
| CCCCCCCCN1CCc2c(C)c(CC(=O)OCC)c(C)c(NC(=O)C(C)(C)C)c21 [Example 3, N-(1-octyl-5-ethoxycarbonylmethyl-4,6-dimethylindolin-7-yl)-2,2-dimethylpropanamide] | 92.5% | 54.2% | 61.2% | 49.2% | – |
| CCCCCCCCN1CCc2c(C)c(C(=O)O)c(C)c(NC(=O)C(C)(C)C)c21 [Example 159] | – | 53.8% | 57.5% | 48.3% | – |
| CCCCCCCCN1CCc2cc(CN(C)C)c(C)c(NC(=O)C(C)(C)C)c21 [Example 81] | – | 31.7% | 53.8% | 47.1% | – |
| CCCCCCCCN1CCc2c(C)c(CCC(=O)O)c(C)c(NC(=O)C(C)(C)C)c21 [Example 120, N-(1-octyl-5-carboxyethyl-4,6-dimethylindolin-7-yl)-2,2-dimethylpropanamide] | 92.3% | 45.8% | 44.6% | – | – |

Reference: patent USRE38970E1, “Indolyl or indolinyl derivatives and medicinal use thereof as ACAT or lipid peroxidation inhibitors” (Kyoto Pharmaceutical Industries, Ltd., priority 1995, dated 2006)
